# Laboratory results as given in ChEMBL document CHEMBL1123701, “Synthesis and quantitative structure-activity relationship analysis of N-triiodoallyl- and N-iodopropargylazoles. New antifungal agents” (1987).
# Columns and labels:
# Cryptococcus neoformans = experiment: Antifungal activity against Cryptococcus neoformans Cr-1 strain; assay type: functional
# Trichophyton benhamiae = experiment: Antifungal activity towards Trichophyton mentagrophytes 530324 strain; assay type: functional, Arthroderma benhamiae
# Aspergillus fumigatus = experiment: Antifungal activity against Aspergillus fumigatus Saito strain; assay type: functional
# Candida albicans = experiment: Antifungal activity against Candida albicans C-A-24 strain; assay type: functional
# [1] = system: Trichophyton interdigitale; experiment: Antifungal activity towards Trichophyton interdigitale; assay type: functional
SMILES,MIC (Cryptococcus neoformans) [µg/mL],MIC (Trichophyton benhamiae) [µg/mL],MIC (Aspergillus fumigatus) [µg/mL],MIC (Candida albicans) [µg/mL],MIC [1] [µg/mL]
COc1ccc(Cl)cc1C(=O)c1cccn1CC(I)=C(I)I,25,12.5,25,25,12.5
NC(=O)c1ccc(-c2nnn(CC#CI)n2)cc1,12.5,6.25,> 100,> 100,3.13
IC#CCn1cccn1,0.78,0.39,0.78,3.13,0.39
CC(C)c1nnn(CC#CI)n1,3.13,0.78,0.78,1.56,0.78
IC#CCn1ccnn1,1.56,0.78,0.78,3.13,0.78
CC(=O)c1c(C)cn(CC#CI)c1C,25,1.56,3.13,25,6.25
O=[N+]([O-])c1cn(CC#CI)c(Cl)c1Cl,1.56,0.1,0.39,0.78,0.39
O=[N+]([O-])c1c[nH]c(Cl)c1Cl,25,6.25,25,100,3.13
Cc1nnn(CC#CI)n1,0.78,0.78,0.78,1.56,0.78
O=C(c1ccccc1)c1cccn1CC(I)=C(I)I,6.25,1.56,6.25,6.25,3.13
O=[N+]([O-])c1c(Cl)cccc1-c1cn(CC#CI)cc1Cl,25,6.25,12.5,25,6.25
IC#CCn1cncn1,0.78,0.78,0.39,3.13,0.78
COC(=O)c1cccn1CC(I)=C(I)I,3.13,0.78,3.13,1.56,0.39
COc1ccc(-c2nnnn2CC(I)=C(I)I)cc1,0.78,0.1,0.78,6.25,0.39
IC(I)=C(I)Cn1nccn1,1.56,0.2,0.39,0.78,0.39
Clc1ccccc1C(c1ccccc1)(c1ccccc1)n1ccnc1 [CLOTRIMAZOLE],1.56,0.39,1.56,6.25,0.39
Clc1cc(Cl)c(OCC#CI)cc1Cl [HALOPROGIN],1.56,0.39,3.13,3.13,0.39

# The next lines start with the values.
MIC (Cryptococcus neoformans) [µg/mL],MIC (Trichophyton benhamiae) [µg/mL],MIC (Aspergillus fumigatus) [µg/mL],MIC (Candida albicans) [µg/mL],MIC [1] [µg/mL],SMILES
6.25,6.25,12.5,12.5,6.25,IC#CCn1ccnc1
0.78,0.39,0.39,3.13,0.78,O=[N+]([O-])c1ncnn1CC#CI
1.56,0.2,0.2,0.78,0.39,IC#CCn1nnc(-c2ccccc2)n1
3.13,0.2,6.25,25,0.39,O=[N+]([O-])c1ccc(-c2nnn(CC#CI)n2)cc1
3.13,0.78,3.13,6.25,1.56,CCCc1nnnn1CC#CI
1.56,0.2,0.78,3.13,0.39,CCOCCc1nnn(CC(I)=C(I)I)n1
100,25,> 100,> 100,6.25,O=C(O)c1ccc(-c2nnn(CC#CI)n2)cc1
0.1,0.2,0.78,6.25,0.78,O=[N+]([O-])c1cn(CC#CI)cn1
> 25,0.78,1.56,25,1.56,IC(I)=C(I)Cn1nnnc1C1CC1
25,3.13,6.25,12.5,1.56,CC(C)c1nnnn1CC#CI
6.25,0.78,0.2,1.56,0.39,IC(I)=C(I)Cn1cncn1
> 100,0.1,> 100,> 100,0.78,Fc1ccc(-c2nnn(CC(I)=C(I)I)n2)cc1
12.5,3.13,12.5,12.5,6.25,O=[N+]([O-])c1c(Cl)cccc1-c1cn(CC(I)=C(I)I)cc1Cl
3.13,0.2,0.39,3.13,0.1,CCCCCc1nnnn1CC#CI
